Where two headings read alike, the source gives them in different places.
Experiments:
[1] = tested on: HIV-1; assay: HIV-1 single-round infectious luciferase reporter virus (pseudotype) assay in HeLa CD4 CCR5 cells; assay type: cell-based
Procedure, shortened: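 HeLa CD4 CCR5 cells (5×10^4/well, DMEM + 10% FBS) were treated with compound (final <10 μM) and infected with single-round luciferase reporter virus made in 293 cells, at MOI ~0.01. Luciferase was read 72 h post infection. EC50 came from 10-concentration percent-inhibition curves fitted to a four-parameter logistic model.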

[2] = tested on: HeLa cells; assay: Cytotoxicity assay in HeLa cells (MTT dye reduction, CC50); settings: cytotoxicity; Yes = CC50 above 100 uM, No = not
Protocol: • Virus production—Human embryonic Kidney cell line, 293, propagated in Dulbecco's Modified Eagle Medium (Life Technologies, Gaithersburg, Md.) containing 10% fetal Bovine serum (FBS, Sigma, St. Louis, Mo.). • Virus infection—Human epithelial cell line, HeLa, expressing the HIV-1 receptors CD4 and CCR^5 was propagated in Dulbecco's Modified Eagle Medium (Life Technologies, Gaithersburg, Md.) containing 10% fetal Bovine serum (FBS, Sigma, St. Louis, Mo.) and supplemented with 0.2 mg/mL Geneticin (Life Technologies, Gaithersburg, Md.) and 0.4 mg/mL Zeocin (Invitrogen, Carlsbad, Calif.). […] Transfections were performed using lipofectAMINE PLUS reagent as described by the manufacturer (Life Technologies, Gaithersburg, Md.). Experiment • 1. Compound was added to HeLa CD4 CCR5 cells plated in 96 well plates at a cell density of 5×10^4 cells per well in 100 μl Dulbecco's Modified Eagle Medium containing 10% fetal Bovine serum at a concentration of […]. • 2. 100 μl of single-round infectious reporter virus in Dulbecco's Modified Eagle Medium was then added to the plated cells and compound at an approximate multiplicity of infection (MOI) of 0.01, resulting in a final volume of 200 μl per well and a final compound concentration of <10 μM. • 3. Samples were harvested 72 h after infection. • 4. Viral infection was monitored by measuring luciferase expression from viral DNA in the infected cells using a luciferase reporter gene assay kit (Roche Molecular Biochemicals, Indianapolis, Ind.). Infected cell supernatants were removed and 50 μl of Dulbecco's Modified Eagle Medium (without phenol red) and 50 μl of luciferase assay reagent reconstituted as described by the manufacturer (Roche Molecular Biochemicals, Indianapolis, Ind.) was added per well. Luciferase activity was then quantified by measuring luminescence using a Wallac microbeta scintillation counter. • 5. […] An EC50 provides a method for comparing the antiviral potency of the compounds of this invention. The effective concentration for fifty percent inhibition (EC50) was calculated with the Microsoft Excel Xlfit curve fitting software. For each compound, curves were generated from percent inhibition calculated at 10 different concentrations by using a four paramenter logistic model (model 205). Table 1 is the key for the data in Tables 2-4. Cytoxicity assays were conducted with the same HeLa using methodology well known in the art.
(§1) For accuracy, the determined measure of viral inhibition is an EC50; but the minimum plasma concentrations which should be maintained in a patient is generally believed to be at least four or five fold higher. […] Lower is better. • 4) Estimating potential exposure in man by measuring parameters such as AUC and rate of clearance by oral and iv dosing in rats. High exposure and low clearance was desired.

[3] = Metabolic stability in pooled human liver microsomes (HLM); settings: pooled human liver microsomes, 3 μM drug; Low/Intermediate/High
Protocol: Metabolic Stability Studies of compounds in Liver Microsomes. The metabolic stability of compounds were investigated in pooled liver microsomes from humans. The human liver microsomes were obtained from BD Gentest (Lot #16, Woburn, Mass.) with a protein concentration of 20 mg/ml and a total cytochrome P450 (CYP) concentration of 0.55 nmol/mg protein. A stock solution of drug was prepared in acetonitrile at 1 mM. […] The incubation media consisted of potassium phosphate buffer (0.1 M, pH 7.4), liver microsomes (final concentration 0.9 mg/ml), magnesium chloride (0.033 mM), and a NADPH-regenerating system. […] The test compound was pre-incubated in the media for 2 min. The reaction was initiated by the addition of the cofactors. The incubation was carried out at 37° C. for 10 min. The reaction was terminated by drawing an aliquot of 100 μL from the incubation and adding into 200 μL of acetonitrile containing a reference compound as an […] analytical standard. Following vortex-mixing and centrifugation, an aliquot of 10 μL of the supernatant was analyzed by LC/MS.
GUIDELINES can be used to categorized test substances as low, intermediate or highly cleared compounds.
as §1
The stability of compounds were also evaluated to determine metabolic stability when incubated in in vitro preparations of human liver microsomes (HLM). This is one commonly used predictive system for evaluating the potential for human metabolism and projecting clearance rates in man. Compounds with low clearance rates were most desireable.

[4] = Human immunodeficiency virus 1, HeLa-CD4/CCR5, read-out: EC50 Group from TABLE 1, HeLa CD4 CCR5 cells, single-round infectious luciferase reporter virus
[5] = Human immunodeficiency virus 1, HeLa-CD4/CCR5, read-out: EC50 category, HIV-1 single-round reporter virus assay, category 1/2/3 per Table A1 key
[6] = Human immunodeficiency virus 1, HeLa-CD4/CCR5, read-out: EC50 Group from Table 1, Table 4, HeLa CD4 CCR5 cells, single-round luciferase reporter virus
[7] = Human immunodeficiency virus 1, HeLa-CD4/CCR5, read-out: EC50 Group from Table 1, Table 2-1, HeLa CD4 CCR5 cells, single-round luciferase reporter virus

O=C(C(=O)N1CCN(C(=O)c2ccccc2)CC1)c1c[nH]c2c(-c3ncco3)ncc(F)c12 [Example 140]
EC50 [1, 4]: < 1000 nM | EC50 [1, 5]: 0.2 to 1000 nM | CC50 > 100 uM [2]: Yes | HLM predicted human clearance class [3]: Intermediate (0.101-0.200)

O=C(C(=O)N1CCN(C(=O)c2ccccc2)CC1)c1c[nH]c2c(-c3ncon3)ncc(F)c12 [Example 146]
EC50 [1, 4]: < 1000 nM | EC50 [1, 5]: 0.2 to 1000 nM | CC50 > 100 uM [2]: Yes | HLM predicted human clearance class [3]: Intermediate (0.101-0.200)

O=C(C(=O)N1CCN(C(=O)c2ccccc2)CC1)c1c[nH]c2c(-c3cn(-c4ccccc4)nn3)ccnc12 [Example 161]
EC50 [1, 6]: < 1000 nM | EC50 [1, 5]: < 0.2 nM | CC50 > 100 uM [2]: Yes | HLM predicted human clearance class [3]: High (0.201-0.300)

O=C(C(=O)N1CCN(C(=O)c2ccccc2)CC1)c1c[nH]c2c(-n3cncn3)ccnc12 [Example 207, 1-(4-benzoyl-piperazin-1-yl)-2-(7-[1,2,4]triazol-1-yl-1H-pyrrolo[3,2-b]pyridin-3-yl)-ethane-1,2-dione]
EC50 [1, 6]: < 1000 nM | EC50 [1, 5]: 0.2 to 1000 nM | CC50 > 100 uM [2]: Yes | HLM predicted human clearance class [3]: Low (0-0.100)

O=C(C(=O)N1CCN(C(=O)c2ccccc2)CC1)c1c[nH]c2c(N3CCCC3)ncc(F)c12 [Example 221]
EC50 [1, 4]: < 1000 nM | EC50 [1, 5]: 0.2 to 1000 nM | CC50 > 100 uM [2]: Yes | HLM predicted human clearance class [3]: Low (0-0.100)

O=C(C(=O)N1CCN(C(=O)c2ccccc2)CC1)c1c[nH]c2c(N3CCOCC3)ncc(F)c12 [Example 222]
EC50 [1, 4]: < 1000 nM | EC50 [1, 5]: 0.2 to 1000 nM | CC50 > 100 uM [2]: Yes | HLM predicted human clearance class [3]: Low (0-0.100)

CCc1ccn(-c2ncc(OC)c3c(C(=O)C(=O)N4CCN(C(=O)c5ccccc5)[C@H](C)C4)c[nH]c23)n1 [Example 230, (R)-1-benzoyl-2-methyl-4-[(4-methoxy-7-(3-ethyl-pyrazol-1-yl)-6-azaindol-3-yl)-oxoacetyl]piperazine]
EC50 [1, 7]: < 1000 nM | EC50 [1, 5]: < 0.2 nM | CC50 > 100 uM [2]: Yes | HLM predicted human clearance class [3]: Intermediate (0.101-0.200)

COc1cnc(-n2ccc(C)n2)c2[nH]cc(C(=O)C(=O)N3CCN(C(=O)c4ccccc4)[C@H](C)C3)c12 [Example 241, (R)-1-benzoyl-2-methyl-4-[(4-methoxy-7-(3-methyl-pyrazol-1-yl)-6-azaindol-3-yl)-oxoacetyl]piperazine]
EC50 [1, 7]: < 1000 nM | EC50 [1, 5]: < 0.2 nM | CC50 > 100 uM [2]: Yes | HLM predicted human clearance class [3]: Low (0-0.100)

COc1cnc(-n2ccc(N)n2)c2[nH]cc(C(=O)C(=O)N3CCN(C(=O)c4ccccc4)CC3)c12 [Example 251, 1-benzoyl-4-[(4-methoxy-7-(3-amino-pyrazol-1-yl)-6-azaindol-3-yl)-oxoacetyl]piperazine]
EC50 [1, 4]: < 1000 nM | EC50 [1, 5]: < 0.2 nM | CC50 > 100 uM [2]: Yes | HLM predicted human clearance class [3]: Low (0-0.100)

COc1cnc(-n2ccnn2)c2[nH]cc(C(=O)C(=O)N3CCN(C(=O)c4ccccc4)[C@H](C)C3)c12 [Example 255, (R)-1-benzoyl-2-methyl-4-[(4-methoxy-7-(1,2,3-triazol-1-yl)-6-azaindol-3-yl)-oxoacetyl]piperazine]
EC50 [1, 7]: < 1000 nM | EC50 [1, 5]: < 0.2 nM | CC50 > 100 uM [2]: Yes | HLM predicted human clearance class [3]: Intermediate (0.101-0.200)

COc1cnc(-n2cnc(N)n2)c2[nH]cc(C(=O)C(=O)N3CCN(C(=O)c4ccccc4)[C@H](C)C3)c12 [Example 258, (R)-1-benzoyl-2-methyl-4-[(4-methoxy-7-(3-amino-1,2,4-triazol-1-yl)-6-azaindol-3-yl)-oxoacetyl]piperazine]
EC50 [1, 7]: < 1000 nM | EC50 [1, 5]: < 0.2 nM | CC50 > 100 uM [2]: Yes | HLM predicted human clearance class [3]: Low (0-0.100)

CCNC(=O)c1ncn(-c2ncc(OC)c3c(C(=O)C(=O)N4CCN(C(=O)c5ccccc5)CC4)c[nH]c23)n1 [Example 273, 1-benzoyl-4-[(4-methoxy-7-(3-ethylaminocarbonyl-1,2,4-triazol-1-yl)-6-azaindol-3-yl)-oxoacetyl]piperazine]
EC50 [1, 4]: < 1000 nM | EC50 [1, 5]: < 0.2 nM | CC50 > 100 uM [2]: Yes | HLM predicted human clearance class [3]: Low (0-0.100)

CNC(=O)c1ncn(-c2ncc(OC)c3c(C(=O)C(=O)N4CCN(C(=O)c5ccccc5)CC4)c[nH]c23)n1 [Example 274, 1-benzoyl-4-[(4-rnethoxy-7-(3-methylaminocarbonyl-1,2,4-triazol-1-yl)-6-azaindol-3-yl)-oxoacetyl]piperazine]
EC50 [1, 4]: < 1000 nM | EC50 [1, 5]: < 0.2 nM | CC50 > 100 uM [2]: Yes | HLM predicted human clearance class [3]: Low (0-0.100)

COc1cnc(-n2cnc(C(=O)N(C)C)n2)c2[nH]cc(C(=O)C(=O)N3CCN(C(=O)c4ccccc4)CC3)c12 [Example 275, 1-benzoyl-4-[(4-methoxy-7-(3-dimethylaminocarbonyl-1,2,4-triazol-1-yl)-6-azaindol-3-yl)-oxoacetyl]piperazine]
EC50 [1, 4]: < 1000 nM | EC50 [1, 5]: < 0.2 nM | CC50 > 100 uM [2]: Yes | HLM predicted human clearance class [3]: Low (0-0.100)

O=C(C(=O)N1CCN(C(=O)c2ccccc2)CC1)c1c[nH]c2c(-c3c[nH]nn3)ncc(F)c12 [Example 299]
EC50 [1, 4]: < 1000 nM | EC50 [1, 5]: < 0.2 nM | CC50 > 100 uM [2]: No | HLM predicted human clearance class [3]: Low (0-0.100)

Cc1noc(-c2ncc(F)c3c(C(=O)C(=O)N4CCN(C(=O)c5ccccc5)CC4)c[nH]c23)n1 [Example 300]
EC50 [1, 4]: < 1000 nM | EC50 [1, 5]: 0.2 to 1000 nM | CC50 > 100 uM [2]: Yes | HLM predicted human clearance class [3]: Low (0-0.100)

Cc1ccnn1-c1ncc(F)c2c(C(=O)C(=O)N3CCN(C(=O)c4ccccc4)CC3)c[nH]c12 [Example 312]
EC50 [1, 4]: < 1000 nM | EC50 [1, 5]: 0.2 to 1000 nM | CC50 > 100 uM [2]: Yes | HLM predicted human clearance class [3]: Low (0-0.100)

Nc1ncn(-c2ncc(F)c3c(C(=O)C(=O)N4CCN(C(=O)c5ccccc5)CC4)c[nH]c23)n1 [Example 313]
EC50 [1, 4]: < 1000 nM | EC50 [1, 5]: < 0.2 nM | CC50 > 100 uM [2]: Yes | HLM predicted human clearance class [3]: Low (0-0.100)

C[C@@H]1CN(C(=O)C(=O)c2c[nH]c3c(-n4ccnn4)ncc(F)c23)CCN1C(=O)c1ccccc1 [Example 314]
EC50 [1, 7]: < 1000 nM | EC50 [1, 5]: < 0.2 nM | CC50 > 100 uM [2]: Yes | HLM predicted human clearance class [3]: Low (0-0.100)

Cc1ncn(-c2ncc(F)c3c(C(=O)C(=O)N4CCN(C(=O)c5ccccc5)[C@H](C)C4)c[nH]c23)n1 [Example 315]
EC50 [1, 7]: < 1000 nM | EC50 [1, 5]: < 0.2 nM | CC50 > 100 uM [2]: Yes | HLM predicted human clearance class [3]: Low (0-0.100)

COc1cnc(-n2cnc(C)c2)c2[nH]cc(C(=O)C(=O)N3CCN(C(=O)c4ccccc4)CC3)c12 [Example 318]
EC50 [1, 4]: < 1000 nM | EC50 [1, 5]: 0.2 to 1000 nM | CC50 > 100 uM [2]: Yes | HLM predicted human clearance class [3]: Low (0-0.100)
